Measured values taken from paper PMC5048338, “Discovery of 4,6-disubstituted pyrimidines as potent inhibitors of the heat shock factor 1 (HSF1) stress pathway and CDK9” (Medchemcomm, 2016).
pIC50: −log10 of the molar value. Like-named read-outs stand apart in the source and are kept apart here.

Key:
CDK2/cyclinE = CDK2/cyclinE (Homo sapiens, UniProt P24941); assay: CDK2 enzyme assay: off-chip mobility shift assay; assay type: biochemical; set-up: purchased Upstate/Millipore; details: for pIC50: biochemical, CDK2/cyclinE, average of two determinations; for fold drop in potency in the CDK2 assay / fold improvement in CDK2 inhibition: relative to compound 3
Experimental: CDK2 enzyme assay: Off-chip Mobility SHIFT Assay
All reagents were purchased from Sigma-Aldrich unless otherwise specified. Inhibition of CDK2/cyclinE activity was quantified using an off-chip incubation, mobility shift assay, which uses a microfluidic chip (Caliper Life Sciences) to measure the conversion of a fluorescent peptide substrate to phosphorylated product. An Off-chip Mobility Shift Chip with 12 sippers (Caliper Life Sciences) was prepared for use according to the manufacturer’s instructions using Coating Reagent #3 (Caliper Life Sciences). The off-chip incubation was carried out in white, 384-well, flat bottom, low volume assay plates (Greiner). 5 µL peptide mix (1.5 µM substrate peptide (fluorescein-QSPKKG-CONH2, Bachem) and 90 µM ATP in kinase base buffer (50 mM HEPES, pH7.5 (Calbiochem), 0.06% CHAPSO)) were added to each well of the prepared compound plates which contained 120 nL compound stock solution per well. The reaction was then initiated by the addition of 6 µL enzyme mix (1.0 nM CDK2/cyclin E (Upstate/Millipore), 1.0 mM DTT and 5.0 mM MgCl2 in kinase base buffer). After incubation for 60 min at room temperature, each reaction was terminated by the addition of 10µL of stop solution containing 100 mM HEPES pH 7.5 (Calbiochem), 0.033% Brij-35, 0.22% Coating Reagent #3 (Caliper Life Sciences), 44 mM EDTA and 5 % DMSO. Reaction products were analysed using a Caliper LabChip LC3000 instrument and peak height was used to calculate percentage conversion of substrate to product.
For compound response testing, a 12 point compound concentration range was used. Compounds were acoustically dosed (Echo 555; Labcyte) into assay-ready plates using 11 half log intervals from 100 μM to […] plus a 12th point at 0.01 μM. Each well was backfilled with the required volume up to 120 nL of 100% DMSO to ensure a final 1% v/v DMSO concentration in the assay. In addition to the compound test wells, each plate carried maximum and minimum controls. Staurosporine at 10 μM was used to inhibit CDK2 activity for the minimum control. As a maximum control, 120 nL pure DMSO was added to the wells. Each plate contained at least 11 randomly distributed maximum and minimum controls. After the addition of compounds to the assay plates, the assay was performed as detailed above. Percentage conversion of substrate to product was used to calculate the effect of each compound on the kinase activity of CDK2/cyclinE. Enzyme inhibition model 3, non-linear curve fit analysis within OriginLab™ software was used to fit dose response curves and estimate the […]
concentration of compound required to reduce the enzyme activity to 50% of the conversion calculated from an average of the maximum controls.
Cell-based ELISA (Cellisa) for HSP72 expression
To follow HSP72 protein expression, a product of HSF1 transcriptional activity, Cellisa was developed. Cells (5-8x10^4cells/ml) were seeded into 96-well plates and incubated at 37 °C for 48 h.
Compounds were then added at a range of concentrations and incubated for 1 h before addition of 17-AAG (250 nM). Cells were then incubated for 18 h. The medium was removed and cells were fixed with fixing solution (4% paraformaldehyde, 0.3% TritonX-100 in PBS) for 30 min at 4 °C. The plates were then washed with 0.1% Tween-20/deionised water before blocking with 5% milk for 30 min at 37 °C. After washing the plates, HSP72 antibody (SPA-810, Enzo Life) was added for 1.5 h at 37 °C.
Following 4 x washes, the plates were incubated with europium-labelled anti-mouse antibody (0.6ug/ml) in Delfia assay buffer (Perkin Elmer) for 1 h at 37 °C. After washing the plates, Delfia enhancement solution was added, shaken for 10 min before reading in the Envision plate reader (Perkin-Elmer) with excitation at 340 nm and emission at 615 nm. The plates were washed again before protein determination using the BCA assay. The europium counts were normalised for the amount of protein in each well. The 50% inhibitory concentration value of the compound was then calculated and presented. […]

HSF1-stress pathway = assay: ArrayScan HSP72 protein assay (HSF1-stress pathway inhibition, 17-AAG induced); details: for pIC50: Homo sapiens, U2OS, read-out: HSF1 IC50; for fold drop in potency in the HSF1-stress pathway assay / fold increase in HSF1-stress pathway inhibition: relative to compound 3
Experimental: To discover inhibitors of the HSF1-stress pathway, we employed an automated cellular imaging and analysis method (ArrayScan™) that quantifies the ability of a compound to suppress the expression of the HSF1-mediated inducible HSP70 isoform, HSP72.
U2OS cells (1500 per well) were plated in 40 μL of DMEM media (containing 10% fetal calf serum and 2 mM Glutamax T-1) in costar 384-well plates and left overnight at 37 °C and 5% CO2 to adhere.
treatment with compound, all wells except min wells were dosed with 17AAG diluted in DMSO (10
°C and 5% CO2. The following day the cells were fixed by addition of 20 μL/well of 12% formaldehyde with 1:1700 Hoechst in PBS for 10 min at room temperature. The fixative was decanted and the wells washed once with 50 μL of phosphate buffer saline (PBS).The PBS was subsequently aspirated, and the cells were permeabilized by addition of 20 μL/well of PBS 0.3% Triton X-100 for 20 min at room temperature. The wells were then washed with 80 μL of PBS prior to the addition of 20 μL of combined primary and secondary antibodies diluted in PBS (1:10 000 mouse anti-Hsp72
11001 molecular probes), for 2 h at room temperature. The wells were then washed with 50 μL of PBS. Finally, 50 μL of PBS was added to each well, and the plates were sealed ready to analyze.
Analysis was carried out using a Cellomics Arrayscan VTI instrument and the Cellomics Arrayscan Compartmental Analysis algorithm to measure cellular levels of HSP72.
100 μM to 0.1 μM plus a 12th point at 0.01 μM. Each well was backfilled with the required volume up to 120 nL of 100% DMSO to ensure a final 1% v/v DMSO concentration in the assay. In addition to the compound test wells, each plate carried maximum and minimum controls. Staurosporine at 10 μM was used to inhibit CDK2 activity for the minimum control. As a maximum control, 120 nL pure DMSO was added to the wells. Each plate contained at least 11 randomly distributed maximum and minimum controls. After the addition of compounds to the assay plates, the assay was performed as detailed above. Percentage conversion of substrate to product was used to calculate the effect of each compound on the kinase activity of CDK2/cyclinE. Enzyme inhibition model 3, non-linear curve fit analysis within OriginLab™ software was used to fit dose response curves and estimate the

CDK9/cyclin T1 = molecular target: T1, CDK9/cyclin T1 (Homo sapiens, UniProt P50750); assay: EMD Millipore (Eurofins) CDK panel; assay type: biochemical; details: EMD Millipore screening panel, N = 1
T1 construct: purchased EMD Millipore screening panel (now Eurofins)
Experimental: Therefore 4,6-pyrimidine 3 was submitted to a EMD Millipore CDK panel to assess potency across the selected CDK family members (Table 3). Modest activity was observed against several CDKs; […]. […]. page 4: […]
(§1) mM Mg Acetate and [9-33P]-ATP (specific activity approx. 500 cpm/pmol, concentration as required). The reaction is initiated by the addition of the MgATP mix. After incubation for 40 minutes at room temperature, the reaction is stopped by the addition of 3% phosphoric acid solution. 10 μL of the reaction is then spotted onto a P30 filtermat and washed three times for 5 minutes in 75 mM phosphoric acid and once in methanol prior to drying and scintillation counting. […]
CDK9/cyclinT1 (h) is incubated with 8 mM MOPS pH 7.0, 0.2 mM EDTA, 100 μM […]
, 10 mM MgAcetate and […]
as §1, with “(specific” for “mM Mg Acetate and [9-33P]-ATP (specific”

[1] = system: HSF1-mediated HSP72 induction; assay: Cell-based ELISA (Cellisa) for HSP72 expression; details: Homo sapiens, U2OS, read-out: HSF1 IC50 (cell-ELISA, HSP72 induction inhibition)
CDK9/CyclinT1 [2] = assay: Adapta screen assay, Life Technologies; details: ratio between CDK2/7/9, below limit of assay detection
U2OS cells = assay: SRB cell growth inhibition assay; assay type: cell-based; details: Homo sapiens, 96 h, read-out: SRB GI50
CDK9/CyclinT1 [3] = details: ratio between CDK2/7/9; ref Yin et al., Mol. Cancer Ther., 2014, 13, 1442-1456; cited from earlier work
CDK7/CyclinH/MAT1 = details: ratio between CDK2/7/9; ref Yin et al., Mol. Cancer Ther., 2014, 13, 1442-1456; cited from earlier work

T1 sequence (P50750 whole entry): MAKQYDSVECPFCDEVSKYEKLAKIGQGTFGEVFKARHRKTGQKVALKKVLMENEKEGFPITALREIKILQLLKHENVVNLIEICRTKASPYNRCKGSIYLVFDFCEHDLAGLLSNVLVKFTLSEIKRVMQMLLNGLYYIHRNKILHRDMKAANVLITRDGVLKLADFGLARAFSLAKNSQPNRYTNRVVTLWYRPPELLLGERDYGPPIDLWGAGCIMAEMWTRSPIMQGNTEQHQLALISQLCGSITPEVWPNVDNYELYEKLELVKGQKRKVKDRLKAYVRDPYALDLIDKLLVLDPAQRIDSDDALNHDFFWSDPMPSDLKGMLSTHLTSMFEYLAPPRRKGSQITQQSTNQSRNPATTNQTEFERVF
T1 sequence (O60563 whole entry partner): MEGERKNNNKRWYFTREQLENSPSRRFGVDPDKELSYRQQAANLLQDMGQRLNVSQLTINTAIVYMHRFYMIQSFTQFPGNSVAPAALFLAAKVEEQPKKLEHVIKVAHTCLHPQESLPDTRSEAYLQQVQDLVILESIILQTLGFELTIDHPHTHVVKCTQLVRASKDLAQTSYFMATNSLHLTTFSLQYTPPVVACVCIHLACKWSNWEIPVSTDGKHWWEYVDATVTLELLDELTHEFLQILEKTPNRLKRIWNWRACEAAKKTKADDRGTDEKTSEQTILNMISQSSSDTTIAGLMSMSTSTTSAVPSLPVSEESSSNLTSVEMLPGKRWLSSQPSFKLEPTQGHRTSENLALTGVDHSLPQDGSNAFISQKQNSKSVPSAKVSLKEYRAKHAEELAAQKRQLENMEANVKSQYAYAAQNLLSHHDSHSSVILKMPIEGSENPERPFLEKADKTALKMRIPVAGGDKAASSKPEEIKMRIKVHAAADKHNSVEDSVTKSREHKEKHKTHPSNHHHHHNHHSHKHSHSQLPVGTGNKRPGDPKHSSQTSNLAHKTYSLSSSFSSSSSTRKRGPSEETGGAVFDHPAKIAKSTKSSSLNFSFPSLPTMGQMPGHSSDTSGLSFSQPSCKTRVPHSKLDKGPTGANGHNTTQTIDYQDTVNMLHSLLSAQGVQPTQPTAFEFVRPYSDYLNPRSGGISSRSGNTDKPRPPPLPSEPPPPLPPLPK

Compound | pIC50 (CDK2/cyclinE) | pIC50 (HSF1-stress pathway) | further results
OCCc1ccc(Nc2cc(-n3cnc4ccccc43)ncn2)cc1 [Compound 1] | 5.94 | 5.70 | 
CN(C)CCOc1ccc(Nc2cc(-n3cnc4ccccc43)ncn2)cc1 [Compound 2] | 4.70 | 5.87 | fold difference in activity between the CDK2 and HSF1-stress pathway assays (HSF1-stress pathway; CDK2 IC50 versus HSF1 IC50): 15 fold
CN(C)CCCOc1ccc(Nc2cc(-n3cnc4ccccc43)ncn2)nc1 [Compound 4] | 6.43 | 6.78 | 
CN(C)CCOc1ccc(Nc2cc(-n3ccnc3)ncn2)nc1 [Compound 6] | 5.15 | 5.21 | fold drop in potency in the CDK2 assay (CDK2/cyclinE): 12 fold; fold drop in potency in the HSF1-stress pathway assay (HSF1-stress pathway): 77 fold; pIC50 (CDK9/cyclin T1): 7.06
CN(C)CCOc1ccc(Nc2cc(-n3ncc4ccccc43)ncn2)nc1 [Compound 7] | 4.53 | < 4.52 | 
CN(C)CCOc1ccc(Nc2cc(-n3ccc4ccccc43)ncn2)nc1 [Compound 8] | 5.35 | 5.63 | 
CN(C)CCOc1ccc(Nc2cc(-c3cnc4ccccc4c3)ncn2)nc1 [Compound 9] | < 4.00 | 4.75 | activity in the CDK2 assay (CDK2/cyclinE; compared to benzimidazole 3): inactive; fold drop in potency in the HSF1-stress pathway assay (HSF1-stress pathway): ~200 fold
CN(C)CCOc1ccc(Nc2cc(-n3cnc4cccnc43)ncn2)nc1 [Compound 10] | 5.80 | 6.12 | 
CN(C)CCOc1ccc(Nc2cc(-n3cnc4ncccc43)ncn2)nc1 [Compound 11] | 6.79 | 7.55 | fold improvement in CDK2 inhibition (CDK2/cyclinE): 5 fold; fold increase in HSF1-stress pathway inhibition (HSF1-stress pathway): 3 fold
Cc1ccc2ncn(-c3cc(Nc4ccc(OCCN(C)C)cn4)ncn3)c2c1 [Compound 12] | 6.92 | 7.41 | 
Cc1nc2ccccc2n1-c1cc(Nc2ccc(OCCN(C)C)cn2)ncn1 [Compound 13] | 5.34 | 5.37 | fold drop in potency in the CDK2 assay (CDK2/cyclinE): > 7 fold; fold drop in potency in the HSF1-stress pathway assay (HSF1-stress pathway): > 7 fold
c1ccc(Nc2cc(-n3cnc4ccccc43)ncn2)nc1 [Compound 14] | 7.23 | 6.07 | fold improvement in CDK2 inhibition (CDK2/cyclinE): 10 fold; fold drop in potency in the HSF1-stress pathway assay (HSF1-stress pathway): 10 fold
CN(C)CCCc1ccc(Nc2cc(-n3cnc4ccccc43)ncn2)nc1 [Compound 15] | 6.16 | 6.70 | 
CN1CCC[C@H]1COc1ccc(Nc2cc(-n3cnc4ccccc43)ncn2)nc1 [Compound 16] | 6.27 |  | 
CN1CCC[C@@H]1COc1ccc(Nc2cc(-n3cnc4ccccc43)ncn2)nc1 [Compound 17] | 6.31 |  | pIC50 (CDK9/cyclin T1): 8.10
c1ccc2c(c1)ncn2-c1cc(Nc2ccc(OCCN3CCOCC3)cn2)ncn1 [Compound 18] | 6.26 | 6.53 | 
c1ccc2c(c1)ncn2-c1cc(Nc2ccc(OCCN3CCCCC3)cn2)ncn1 [Compound 19] | 6.45 | 7.24 | fold increase in HSF1-stress pathway inhibition (HSF1-stress pathway): 2 fold; pIC50 (CDK9/cyclin T1): 8.10
CN1CCC(Oc2ccc(Nc3cc(-n4cnc5ccccc54)ncn3)nc2)CC1 [Compound 20] | 5.91 | 6.05 | 
CN1CCN(c2ccc(Nc3cc(-n4cnc5ccccc54)ncn3)nc2)CC1 [Compound 21] | 6.19 | 6.35 | pIC50 (CDK9/cyclin T1): 7.66
C[C@H]1CN(C)CCN1c1ccc(Nc2cc(-n3cnc4ccccc43)ncn2)nc1 [Compound 22] | 6.08 | 5.86 | 
CN(C)C1CCN(c2ccc(Nc3cc(-n4cnc5ccccc54)ncn3)nc2)CC1 [Compound 23] | 6.11 | 6.21 | 
CN1CCC[C@H]1COc1ccc(Nc2cc(-n3cnc4ncccc43)ncn2)nc1 [Compound 24] | 6.84 |  | 
c1cnc2ncn(-c3cc(Nc4ccc(OCCN5CCCCC5)cn4)ncn3)c2c1 [Compound 25] | 7.26 | 7.82 | pIC50 [1]: 7.82; ratio of activity CDK9/CyclinT1 (CDK9/CyclinT1 [2]): 1; GI50 (U2OS cells; U2OS cells, single agent, average of two determinations): 5 nM
CC(C)c1c2cc(-c3ccnc(NC4CCC(NC5CCOCC5)CC4)n3)ccc2nn1C (stereo not drawn) [LY2857785] |  |  | ratio of activity CDK9/CyclinT1 (CDK9/CyclinT1 [3]): 1; ratio of activity CDK7/CyclinH/MAT1 (CDK7/CyclinH/MAT1): 22
CC(C)(C)c1cnc(CSc2cnc(NC(=O)C3CCNCC3)s2)o1 [SNS-032, reference compound] |  |  | pIC50 [1]: 6.12; GI50 (U2OS cells; U2OS): 370 nM
